Assay results as given in the supplement of paper PMC10307832.

Compound: C[C@@H](Oc1cc(-c2cnn(C3CCNCC3)c2)cnc1N)c1c(Cl)ccc(F)c1Cl [Crizotinib] + CC(=O)Nc1cccc(-n2c(=O)n(C3CC3)c(=O)c3c(Nc4ccc(I)cc4F)n(C)c(=O)c(C)c32)c1 [Trametinib] (partner 0.02 µM)
Assay: relative viability (nuclei count vs DMSO), 5 days (fraction); higher = more cells survive
Outline: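 For relative viability, nuclei counts in treated wells were divided by those in vehicle wells. Lung cancer cell lines had been pin-tool dosed in 1536-well plates the day after seeding and cultured for 5 days, then fixed and stained in one step (final 0.05% Triton X-100, 1% formaldehyde, 1 ug/ml Hoechst) and imaged at 4×. Doses were one drug alone or a fixed anchor-drug dose plus five library-drug doses (not always all listed) in √10 steps, and values are duplicate-plate medians.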

Cell Line | relative viability (first compound 0.01 µM) | relative viability (first compound 0.03162 µM) | relative viability (first compound 1 µM) | relative viability (first compound 0.1 µM) | relative viability (first compound 0.3162 µM)
LC-2-ad | 0.899 | 0.985 | 0.892 | – | –
LCLC-97TM1 | 0.189 | 0.173 | 0.196 | 0.209 | 0.173
LCLC-103H | 0.644 | 0.646 | 0.642 | 0.662 | 0.686
LK-2 | 0.858 | 0.749 | 0.728 | 0.674 | 0.805
LOU-NH91 | 0.773 | 0.79 | 0.794 | 0.833 | 0.763
LU99A | 0.587 | 0.527 | 0.522 | 0.49 | 0.511
LXF-289 | 0.666 | 0.668 | 0.693 | 0.726 | 0.57
NCI-H23 | 0.341 | 0.367 | 0.393 | 0.329 | –
NCI-H322M | – | 0.507 | 0.554 | 0.482 | 0.493
NCI-H358 | 0.108 | 0.151 | 0.135 | 0.131 | 0.112
NCI-H441 | 0.405 | 0.475 | 0.446 | 0.59 | 0.382
NCI-H460 | 0.212 | 0.154 | 0.149 | 0.211 | 0.165
NCI-H520 | 0.603 | 0.744 | 0.668 | 0.767 | 0.568
NCI-H522 | 0.619 | 0.689 | 0.8 | 0.799 | 0.703
NCI-H596 | 0.834 | 0.845 | 0.819 | 0.82 | 0.888
NCI-H647 | 0.43 | 0.575 | 0.559 | 0.435 | 0.436
NCI-H650 | 0.955 | 1.04 | – | – | –
NCI-H661 | 0.536 | 0.563 | 0.549 | 0.536 | 0.61
